Assay [1] deals with AHAS enzyme of A205V homozygous (B7imi, IMISUN1). Description: AHAS enzyme activity assay, Set 2. It is filed as biochemical, sunflower. As to conditions: Set 2 (FIG. 14). Here is the method:
(§1) Twelve greenhouse grown sunflower plants from each of the lines depicted in Table 21 were bulked and subjected to an AHAS enzyme activity assay via the method of Singh et al. (1988) Anal. Biochem. 171:173-179. Each activity assay was repeated twice. Due to the large number of samples, the experiment was split into two sets (Table 21).
(§2) Young, actively growing leaves, from four week old plantlets, were ground in a mortar and pestle with liquid N2 and extracted with a buffer composed of 100 mM Pyruvate, 200 mM KH2PO4, 20 mM MgCl2, 2 mM thiamine pyrophosphate and […]. Plant extracts were then spun through a 10 mL Zeba™ TM desalt spin column (Pierce #89893) as per the manufacturer's recommendation. The inhibition assay was performed as described by Singh et al. (1988) Anal. Biochem. 171:173-179. Assays were conducted in a 96-well format. Fifty μl of inhibitor was added to each well containing 50 μl of soluble protein extract to give final concentrations of 0.78, 1.56, 3.125, 6.25, 12.5, 25, 50 and 100 μM imazamox or 0.78, 1.56, 3.125, 6.25, 12.5, 25, 50 and 100 μM imazapyr. Zero herbicide controls were also included for each line. Reactions were processed as outlined by Singh et al. (1988) Anal. Biochem. 171:173-179. Absorbance was measured at 530 nm. AHAS activity, expressed as the mean of the absorbance values for each treatment, was presented as a percentage of the mean of the zero-herbicide controls.

The subject of assay [2] is AHAS enzyme of A122T homozygous (GM40). The assay can be described thus: AHAS enzyme activity assay, Set 2. The assay is classed as biochemical, sunflower. The following applies: Set 2 (FIG. 14). Here is the method:
as §1, §2

Assay [3] concerns AHAS enzyme of A122T heterozygous hybrid (cmsBTK47 × R731). The assay can be described thus: AHAS enzyme activity assay, Set 2. It is filed as biochemical, sunflower. As to conditions: Set 2 (FIG. 14). The protocol: as §1, §2
For assay [4], the system named is sunflower hybrid H3 (L3*L2), 122/205. Description: field trial, imazapyr at V8 or R1 stage (Example 4). The following applies: H3 122/205.
For assay [5], the system named is F2 population from the cross GM40 (A122T)/HA425 (A205V). The assay can be described thus: imazapyr challenge of segregating population (Example 1). The assay is classed as in vivo, sunflower. The following applies: 320 g a.i. ha-1; eighty F2 plants. The protocol: To determine the phenotypic interactions of the resistance gene A122T and the Imr1 gene (A205V) already described in IMI-R sunflowers (HA425), F1, F2 and BC1F1 populations from the cross GM40 (A122T)/HA425 (A205V) were evaluated at two herbicide applications rates (80 and 320 g. a. i. Ha^−1 of imazapyr). […] When F2 and BC1F1 populations were scored at the higher herbicide rate (320 g. a. i. Ha-1), which discriminates both parents, segregation for susceptibility was observed. Only two phenotypic classes could be detected, a resistant class with plants without any injury or slight symptoms and a susceptible phenotype that was killed like the control line HA425.
The AHASL1 gene in sunflower presents a simple sequence repeat (SSR) polymorphism which discriminates lines carrying the Imr1 allele from any other sunflower genotype (Kolkman et al. (2004) Theor. Appl. Genet. 109: 1147-1159). […] This length variant polymorphism detected in GM40 and HA425 was exploited to investigate the segregation in the F2 and BC1F1 populations derived from crossing both lines. […] The cosegregation of herbicide resistance phenotypes and AHASL1 haplotypes was further assessed on 50 BC1F1 progeny segregating for resistance. […]

For assay [6], the system named is sunflower hybrid H6 (L1 * WT), 205/wild type. The assay can be described thus: field trial, imazapyr at V8 or R1 stage (Example 4). As to conditions: H6 205/wild type.
The subject of assay [7] is sunflower hybrid H1 (L1*L2), 205/205. The description is as above. The following applies: H1 205/205.
For assay [8], the system named is sunflower line HA445 (high oleic). The assay can be described thus: tolerance to imidazolinones, greenhouse (Example 8).
Assay [9] concerns sunflower hybrid H2 (L3*L4), 122/122. The assay can be described thus: field trial, imazapyr at V8 or R1 stage (Example 4). The following applies: H2 122/122.
Assay [10] relates to hybrids carrying the A205V mutation event (A205V/A205V, A205V/WT). Described as above. The following applies: 160 g ai/ha applied at R1; 14 DAT.
Where [11] appears, read: 160 g ai/ha applied at R1, 14 DAT.
Where [12] appears, read: 160 g ai/ha applied at R1, 21 DAT.
Setting [13] is: 160 g ai/ha applied at V8, 14 DAT.
Where [14] appears, read: 160 g ai/ha applied at V8, 21 DAT.

Turning to `COCc1cnc(C2=NC(C)(C(C)C)C(=O)N2)c(C(=O)O)c1` (stereo not drawn) [imazamox], the “AHAS activity, % of untreated control” value is listed as 30% in assay [1] (50 μM); 26% in assay [1] (100 μM); 63% in assay [2] (50 μM); 60% in assay [2] (100 μM); 30% in [3] (50 μM); 30% in assay [3] (100 μM).
With `CC(C)C1(C)N=C(c2ncccc2C(=O)O)NC1=O` (stereo not drawn) [imazapyr], the “Mean Phytotoxicity Index (0-50)” value worked out at 4.3 in [4] (setting [11]); 0.7 in assay [4] (setting [12]); 3 in assay [4] (setting [13]); 0 in assay [4] (setting [14]); 40 in assay [6] (setting [11]); 48.3 in assay [6] (setting [12]). The “Mean Phytotoxicity Index (0-50)” value in assay [6] (setting [13]) is 5; in assay [6] (setting [14]) it was 5; in assay [7] (setting [11]) it was 35; in assay [7] (setting [12]) it was 37.7; in assay [7] (setting [13]), 6; in assay [7] (setting [14]) it was 3. Moreover, the “Mean Phytotoxicity Index (0-50)” value was 2.3 in assay [9] (setting [11]), 1.7 in assay [9] (setting [12]), 5 in assay [9] (setting [13]) and 1 in assay [9] (setting [14]). Besides, the “plants killed by the herbicide (S)” value in assay [5] turned out to be 22 plants. Further, in [5], the “plants with no symptoms or a slight injury (R)” value is recorded as 58 plants. Also, the “outcome of the herbicide treatment” value in assay [8] (160 gr/ha at V4) is recorded as “killed”. Moreover, the “Mean Phytotoxicity Index (0-9)” value in assay [8] (160 gr/ha at V4, fourteen days after treatment) worked out at 8.8. Moreover, in [10], the “PI (0-50), group with chlorosis, stunting and deformation” value is “greater than 35”.

Source of the values: patent US20150148234A1, “HERBICIDE-RESISTANT SUNFLOWER PLANTS WITH MULTIPLE HERBICIDE RESISTANT ALLELES OF AHASL1 AND METHODS OF USE” (NIDERA S.A., priority 2013, published 2015).
